pIC50: −log10 of the molar value.
Experiments:
[1] = Cytotoxicity against human Bel7402 cells assessed as inhibition of cell growth after 24 hrs by MTT assay; format: functional, cell-based; details: Bel-7402, 24 h
[2] = Cytotoxicity against human HL7702 cells assessed as inhibition of cell growth after 24 hrs by MTT assay; format: cell-based; details: L02, 24 h
SMMC-7721 = test: Cytotoxicity against human SMMC7721 cells assessed as inhibition of cell growth after 24 hrs by MTT assay; format: functional, cell-based; details: SMMC-7721, 24 h
[3] = Hemolytic activity in rabbit RBC assessed as induction of hemolysis; format: cell-based, Oryctolagus cuniculus, Erythrocyte; details: red blood cells, read-out: HD50 (the source's name)
A549 = test: Cytotoxicity against human A549 cells assessed as inhibition of cell growth after 24 hrs by MTT assay; format: functional, cell-based; details: A549, 24 h
[4] = Induction of hemolysis in erythrocytes (unknown origin); format: cell-based, Erythrocyte; details: read-out: HD50 (the source's name)
[5] = Ratio of hemolytic HD50 for PSD to hemolytic HD50 for compound in rabbit RBC; format: ADME, cell-based, Oryctolagus cuniculus; details: erythrocyte

| SMILES | pIC50 [1] | pIC50 [2] | pIC50 (SMMC-7721) | HC50 [3] | pIC50 (A549) | HC50 [4] | Ratio [5] |
| --- | --- | --- | --- | --- | --- | --- | --- |
| C[C@@H]1O[C@@H](O[C@H]2[C@H](O[C@H]3CC[C@@]4(C)[C@@H](CC[C@]5(C)[C@@H]4CC=C4[C@@H]6CC(C)(C)CC[C@]6(C(=O)O)CC[C@]45C)[C@]3(C)CO)OC[C@H](O)[C@@H]2O)[C@H](O)[C@H](O)[C@H]1O [ALPHA-HEDERIN] | 4.88 | 4.94 | 4.97 | 7.5 µM | 4.82 | 10 µM | – |
| C[C@@H]1O[C@@H](O[C@H]2[C@H](O[C@H]3CC[C@@]4(C)[C@@H](CC[C@]5(C)[C@@H]4CC=C4[C@@H]6CC(C)(C)CC[C@]6(C(=O)NCC(=O)O)CC[C@]45C)[C@]3(C)CO)OC[C@H](O[C@@H]3O[C@H](CO)[C@@H](O)[C@H](O)[C@H]3O)[C@@H]2O)[C@H](O)[C@H](O)[C@H]1O | 5.37 | 5.82 | 5.80 | 160 µM | 5.24 | – | 20 |
| C[C@@H]1O[C@@H](O[C@H]2[C@H](O[C@H]3CC[C@@]4(C)[C@@H](CC[C@]5(C)[C@@H]4CC=C4[C@@H]6CC(C)(C)CC[C@]6(C(=O)O)CC[C@]45C)[C@]3(C)CO)OC[C@H](O[C@@H]3O[C@H](CO)[C@@H](O)[C@H](O)[C@H]3O)[C@@H]2O)[C@H](O)[C@H](O)[C@H]1O [HEDERACOLCHISIDE A] | 5.05 | 4.90 | 5.12 | 6.3 µM | 5.20 | 22 µM | – |
| C[C@@H]1O[C@@H](O[C@H]2[C@H](O[C@H]3CC[C@@]4(C)[C@@H](CC[C@]5(C)[C@@H]4CC=C4[C@@H]6CC(C)(C)CC[C@]6(C(=O)N6CCC[C@H]6C(=O)O)CC[C@]45C)[C@]3(C)CO)OC[C@H](O[C@@H]3O[C@H](CO)[C@@H](O)[C@H](O)[C@H]3O)[C@@H]2O)[C@H](O)[C@H](O)[C@H]1O | 4.01 | < 4.00 | 4.33 | 326 µM | 4.15 | – | 20 |
| C[C@@H]1O[C@@H](O[C@H]2[C@H](O[C@H]3CC[C@@]4(C)[C@@H](CC[C@]5(C)[C@@H]4CC=C4[C@@H]6CC(C)(C)CC[C@]6(C(=O)N[C@H](CO)C(=O)O)CC[C@]45C)[C@]3(C)CO)OC[C@H](O[C@@H]3O[C@H](CO)[C@@H](O)[C@H](O)[C@H]3O)[C@@H]2O)[C@H](O)[C@H](O)[C@H]1O | 4.03 | < 4.00 | < 4.00 | 60.3 µM | 4.14 | – | 20 |

— ChEMBL document CHEMBL3425467, “Synthesis, cytotoxicity and haemolytic activity of Pulsatilla saponin A, D derivatives” (Bioorg Med Chem Lett, 2015)
